Measured values: ChEMBL document CHEMBL4616621, “Pro-apoptotic carboxamide analogues of natural fislatifolic acid targeting Mcl-1 and Bcl-2” (Bioorg Med Chem Lett, 2020)

What was measured:
MCF7 = test: Antiproliferative activity against human MCF7 cells assessed as cell death; assay type: functional, cell-based
A549 = test: Antiproliferative activity against human A549 cells assessed as cell death; assay type: functional, cell-based
Bcl-2-like protein 1 = Bcl-2-like protein 1 (Homo sapiens, UniProt Q07817); test: Inhibition of Bcl-xL (unknown origin)/Bak interaction preincubated for 5 mins followed by fluorescein-labeled peptide addition and measured after 10 mins by fluorescein-labeled peptide displacement based fluorescence polarization assay
Bcl-2-like protein 1, sequence (Q07817 whole entry): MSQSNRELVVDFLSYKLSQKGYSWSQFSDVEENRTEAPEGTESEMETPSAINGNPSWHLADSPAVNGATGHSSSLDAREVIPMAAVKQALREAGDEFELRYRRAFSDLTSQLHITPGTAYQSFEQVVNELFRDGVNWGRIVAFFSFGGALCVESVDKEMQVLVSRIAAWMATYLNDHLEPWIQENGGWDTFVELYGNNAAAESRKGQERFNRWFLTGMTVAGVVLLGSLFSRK

[1] = molecular target: Apoptosis regulator Bcl-2 (Homo sapiens, UniProt P10415); test: Inhibition of Bcl2 (unknown origin)/Bim interaction preincubated for 5 mins followed by fluorescein-labeled peptide addition and measured after 10 mins by fluorescein-labeled peptide displacement based fluorescence polarization assay
Apoptosis regulator Bcl-2, sequence (P10415 whole entry): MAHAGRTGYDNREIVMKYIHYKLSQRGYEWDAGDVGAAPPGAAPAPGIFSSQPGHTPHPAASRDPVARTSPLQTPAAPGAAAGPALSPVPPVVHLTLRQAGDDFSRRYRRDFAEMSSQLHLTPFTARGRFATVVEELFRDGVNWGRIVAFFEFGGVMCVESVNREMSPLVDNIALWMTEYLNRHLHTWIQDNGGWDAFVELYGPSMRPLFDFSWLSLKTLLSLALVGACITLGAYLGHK

[2] = molecular target: Induced myeloid leukemia cell differentiation protein Mcl-1 (Homo sapiens, UniProt Q07820); test: Inhibition of Mcl-1 (unknown origin)/Bid interaction preincubated for 5 mins followed by fluorescein-labeled peptide addition and measured after 10 mins by fluorescein-labeled peptide displacement based fluorescence polarization assay
Induced myeloid leukemia cell differentiation protein Mcl-1, sequence (Q07820 whole entry): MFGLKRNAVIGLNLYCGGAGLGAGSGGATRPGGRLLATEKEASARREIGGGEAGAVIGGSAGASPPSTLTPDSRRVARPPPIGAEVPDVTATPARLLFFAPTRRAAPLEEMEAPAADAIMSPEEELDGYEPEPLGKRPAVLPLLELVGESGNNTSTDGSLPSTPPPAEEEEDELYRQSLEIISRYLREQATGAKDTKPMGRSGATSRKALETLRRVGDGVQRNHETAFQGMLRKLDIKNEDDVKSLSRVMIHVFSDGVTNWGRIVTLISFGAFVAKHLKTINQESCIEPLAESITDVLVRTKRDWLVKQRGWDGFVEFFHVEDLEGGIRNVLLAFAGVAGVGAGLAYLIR

| SMILES | Ki (Bcl-2-like protein 1) | Ki [1] | Ki [2] | IC50 (MCF7) | IC50 (A549) |
| --- | --- | --- | --- | --- | --- |
| COc1ccc(NC(=O)[C@H]2CC=C(CCC=C(C)C)C[C@@H]2c2ccccc2)cc1 | > 23 µM | > 23 µM | > 33 µM | – | – |
| COC(=O)c1ccc(NC(=O)[C@@H]2CC=C(CCC=C(C)C)C[C@H]2c2ccccc2)cc1 | > 23 µM | > 23 µM | > 33 µM | – | – |
| CC(C)=CCCC1=CC[C@@H](C(=O)N(C)C)[C@H](c2ccccc2)C1 | > 23 µM | > 23 µM | > 33 µM | – | – |
| CC(C)=CCCC1=CC[C@H](C(=O)Nc2ccc(C(=O)O)cc2)[C@@H](c2ccccc2)C1 | > 23 µM | > 23 µM | 8.5 µM | – | – |
| CONC(=O)[C@H]1CC=C(CCC=C(C)C)C[C@@H]1c1ccccc1 | > 23 µM | 2.4 µM | 16.6 µM | 45.2 µM | 42.2 µM |
| COC(=O)CCNC(=O)[C@H]1CC=C(CCC=C(C)C)C[C@@H]1c1ccccc1 | > 23 µM | 3.1 µM | 5.5 µM | 96.8 µM | 87.9 µM |
| CC(C)=CCCC1=CC[C@@H](C(N)=O)[C@H](c2ccccc2)C1 | > 23 µM | > 23 µM | > 33 µM | – | – |
| CON(C)C(=O)[C@H]1CC=C(CCC=C(C)C)C[C@@H]1c1ccccc1 | > 23 µM | 0.3 µM | 0.9 µM | 42.1 µM | 31.2 µM |
| CC(C)=CCCC1=CC[C@@H](C(=O)Nc2ccc(O)cc2)[C@H](c2ccccc2)C1 | > 23 µM | > 23 µM | > 33 µM | – | – |
| CC(C)=CCCC1=CC[C@H](C(=O)NCCC(=O)O)[C@@H](c2ccccc2)C1 | > 23 µM | > 23 µM | > 33 µM | – | – |
| COc1ccc(NC(=O)[C@@H]2CC=C(CCC=C(C)C)C[C@H]2c2ccccc2)cc1 | > 23 µM | > 23 µM | > 33 µM | – | – |
| CONC(=O)[C@@H]1CC=C(CCC=C(C)C)C[C@H]1c1ccccc1 | > 23 µM | 2.7 µM | > 33 µM | – | – |
| CC(C)=CCCC1=CC[C@@H](C(=O)N(C)O)[C@H](c2ccccc2)C1 | > 23 µM | 2.3 µM | 9.2 µM | – | – |
| CC1(C)CCCC2=C1C[C@H](C(=O)O)[C@@H](c1ccccc1)C2 | > 23 µM | > 23 µM | 9 µM | – | – |
| COC(=O)c1ccc(NC(=O)[C@H]2CC=C(CCC=C(C)C)C[C@@H]2c2ccccc2)cc1 | > 23 µM | > 23 µM | > 33 µM | – | – |
| COC(=O)CCNC(=O)[C@@H]1CC=C(CCC=C(C)C)C[C@H]1c1ccccc1 | > 23 µM | > 23 µM | 15 µM | – | – |
| CC(C)=CCCC1=CC[C@@H](C(=O)NCCC(=O)O)[C@H](c2ccccc2)C1 | > 23 µM | > 23 µM | > 33 µM | – | – |
| CC(C)=CCCC1=CC[C@@H](C(=O)Nc2ccc(C(=O)O)cc2)[C@H](c2ccccc2)C1 | > 23 µM | 2.2 µM | > 33 µM | – | – |
| CC(C)=CCCC1=CC[C@H](C(N)=O)[C@@H](c2ccccc2)C1 | > 23 µM | > 23 µM | > 33 µM | – | – |
| CCCCCC[C@H]1C(=O)O[C@H](C)[C@H](NC(=O)c2cccc(NC=O)c2O)C(=O)O[C@@H](C)[C@@H]1OC(=O)CC(C)C [ANTIMYCIN A] | – | – | – | – | 6.5 µM |

Second part, led by results:

| Ki (Bcl-2-like protein 1) | Ki [1] | Ki [2] | SMILES | IC50 (MCF7) | IC50 (A549) |
| --- | --- | --- | --- | --- | --- |
| 5.7 µM | > 23 µM | 4 µM | CC(C)=CCCC1=CC[C@H](C(=O)O)[C@@H](c2ccccc2)C1 | 64.3 µM | 53.7 µM |
| > 23 µM | 2.1 µM | 7.2 µM | CC(C)=CCCC1=CC[C@H](C(=O)N(C)O)[C@@H](c2ccccc2)C1 | – | – |
| > 23 µM | > 23 µM | > 33 µM | CC1(C)CCCC2=C1C[C@@H](C(=O)O)[C@H](c1ccccc1)C2 | – | – |
| > 23 µM | > 23 µM | 18.9 µM | CON(C)C(=O)[C@H]1CC2=C(CCCC2(C)C)C[C@@H]1c1ccccc1 | – | – |
| 17.4 µM | 0.7 µM | 8.2 µM | CC(C)=CCCC1=CC[C@@H](C(=O)NO)[C@H](c2ccccc2)C1 | – | – |
| > 23 µM | > 23 µM | > 33 µM | CON(C)C(=O)[C@@H]1CC=C(CCC=C(C)C)C[C@H]1c1ccccc1 | – | – |
| 19 µM | 0.6 µM | 7.3 µM | CC(C)=CCCC1=CC[C@H](C(=O)NO)[C@@H](c2ccccc2)C1 | 72.3 µM | 71.7 µM |
| > 23 µM | > 23 µM | > 33 µM | CC(C)=CCCC1=CC[C@H](C(=O)Nc2ccc(O)cc2)[C@@H](c2ccccc2)C1 | 66.7 µM | 66.8 µM |
| 9.6 µM | > 23 µM | 8.6 µM | CC(C)=CCCC1=CC[C@@H](C(=O)O)[C@H](c2ccccc2)C1 | – | – |
| > 23 µM | > 23 µM | 15 µM | CON(C)C(=O)[C@@H]1CC2=C(CCCC2(C)C)C[C@H]1c1ccccc1 | – | – |
| 20.1 µM | > 23 µM | 5.4 µM | CC(C)=CCCC1=CC[C@H](C(=O)N(C)C)[C@@H](c2ccccc2)C1 | – | – |
